These results are taken from patent US12522614B2, “Topical phosphoinositide 3-kinase inhibitors” (VENTHERA, INC., priority 2019, dated 2026).

As usually defined, the IC50 is the concentration that inhibits the measured activity by half. A lower IC50 goes with greater potency in that assay.

One series has as its system PI3K. Conditions: U.S. Pat. No. 6,838,457; cited from earlier work.
Series [1] is described as follows: In vitro human skin permeation study of topical gel formulations (Franz diffusion cells). It is filed as in vitro ADME. The note with it: saturated gel formulations, skin flux experiments. The source says:
The gel formulation of Example 8 was used as the donor phase to determine the permeation of Compound 1.002 through human skin and its effectiveness as a topical application. Three skin donors and three diffusion cells (for each donor) per formulation were used in the in vitro skin permeation experiments. Split thickness dermatomed (approximately at […] thickness) human cadaver skin, supplied by New York Firefighters Skin Bank, NY, was used to determine the permeation rate of the tested compound (i.e., the drug) in vitro. All in vitro skin permeation studies were conducted using the Vertical Diffusion Cells assembly with consoles (Model FDC-6), and heating controllers (Logan Instruments Inc. Somerset, NJ). Each assembly consisted of six vertical, jacketed (37° C.±0.5° C.) 12-mL Franz diffusion cells with magnetic stirrer and 1.767 cm^2 diffusion area.
(§1) Skin flux studies were run for a period of 48 hours. At predetermined intervals (2, 4, 8, 24 and 48 hours) after starting the experiment, the entire contents of the receiver compartment were collected for determining concentrations of the drug by HPLC. The receiver compartment was refilled with fresh receiver medium. The receiver medium was pH 7.4 phosphate buffer with 0.5 mg/ml of Oleath 20 with the saturation concentration of the drug in the receptor medium being 0.152 mg/ml. This solubility of the drug in the receiver medium was enough to ensure sink conditions throughout each collection interval.
Samples of the receptor phase were obtained at 2, 4, 8, 12, 24 and 48 h and concentrations of Compound 1.002 and 3-(4-morpholinothieno(3,2-d)pyrimidin-2-yl)phenol (metabolite of Compound 1.002, abbreviated as MTPP) were determined using a validated HPLC method. The metabolism of Compound 1.002 to MTPP takes place in the human skin by esterase enzymes.
HPLC method: Column—Gemini C-18 4.6×150 mm, 5 μm particle size; Mobile Phase—water:acetonitrile 25:75 containing 0.1% TFA; Flow Rate—1 mL/min; Detection—274 nm; Column Temperature—40° C.; and Run Time—10 min. The retention times for MTPP and Compound 1.002 were 3.9 and 7.2 minutes, respectively.
The skin flux of drugs and cumulative amount of drugs permeated (sum of MTPP and Compound 1.002) for a period of 48 hours were calculated and are shown in Table 3. FIG. 3 represents a plot of Cumulative amount permeated versus time.

Assay in series [2]: as above
It is filed as in vitro ADME. The note with it: human skin; for Cumulative permeation (intact compound): Study-4, saturated gel; for Cumulative permeation, Compound 1.012 / Hydrolysis of Cmpd. 1.012 to MTPP: Study-6, gel saturated at 58 mg/mL.

The target in a further series is T1, MTOR/FRAP1 (Homo sapiens, UniProt P42345).
T1 construct: purchased Reaction Biology Corporation (RBC)
As to the kind of experiment: Lipid kinase inhibitory activity, ADP-Glo. The series is classed as biochemical. The protocol:
(§2) Lipid kinases: Lipid kinases from Reaction Biology Corporation (RBC) in ADP-Glo format were used.
(§3) Assay Description: The kinase reactions utilized ATP and produced ADP as a byproduct. The ADP production was quantified by ADP-Glo luminescence detection. This assay was a 3-step reaction. First, the kinase reaction with lipid substrate was carried out in the presence of ATP, and the reaction was quenched and depleted remaining ATP with ADP-Glo™ reagent, and then finally ADP was converted to ATP which was measured using a luciferase/luciferin reaction.
(§4) Assay Procedure: The assay was performed according to the steps as follows: • 1. Preparing substrate in freshly prepared reaction buffer; • 2. Delivering kinase into the substrate solution and gently mixing; • 3. Delivering compounds in […] into the kinase reaction mixture by Acoustic technology (Echo550; nanoliter range), incubating for 20 minutes at room temperature; • 4. Delivering ATP into the reaction mixture to initiate the reaction; • 5. Incubating for 30 minutes at 30° C.; • 6. Quenching the reaction with ADP-Glo reagent and incubating for 40 minutes; • 7. Adding Detection Mixture and incubating for 30 minutes; and • 8. Measuring luminescence.
(§5) Data Analysis: The luminescence was converted into μM ADP production based on ADP standard curves. The nonlinear regression to obtain the standard curve and IC50 values were performed using Graphpad Prism software.
For orientation: In ADP-Glo the light output rises with the ADP produced.

A further series addresses T2, PI3Ka (p110a/p85a) (Homo sapiens, UniProt P42336).
T2 construct: purchased Reaction Biology Corporation (RBC)
Put plainly: Lipid kinase inhibitory activity, ADP-Glo. The series is classed as biochemical. The note with it: α. The protocol: as §2, §3, §4, §5

The target in another series is T3, PI3Kb (p110b/p85a) (Homo sapiens, UniProt P42338).
T3 construct: purchased Reaction Biology Corporation (RBC)
T3 sequence (P42338 whole entry): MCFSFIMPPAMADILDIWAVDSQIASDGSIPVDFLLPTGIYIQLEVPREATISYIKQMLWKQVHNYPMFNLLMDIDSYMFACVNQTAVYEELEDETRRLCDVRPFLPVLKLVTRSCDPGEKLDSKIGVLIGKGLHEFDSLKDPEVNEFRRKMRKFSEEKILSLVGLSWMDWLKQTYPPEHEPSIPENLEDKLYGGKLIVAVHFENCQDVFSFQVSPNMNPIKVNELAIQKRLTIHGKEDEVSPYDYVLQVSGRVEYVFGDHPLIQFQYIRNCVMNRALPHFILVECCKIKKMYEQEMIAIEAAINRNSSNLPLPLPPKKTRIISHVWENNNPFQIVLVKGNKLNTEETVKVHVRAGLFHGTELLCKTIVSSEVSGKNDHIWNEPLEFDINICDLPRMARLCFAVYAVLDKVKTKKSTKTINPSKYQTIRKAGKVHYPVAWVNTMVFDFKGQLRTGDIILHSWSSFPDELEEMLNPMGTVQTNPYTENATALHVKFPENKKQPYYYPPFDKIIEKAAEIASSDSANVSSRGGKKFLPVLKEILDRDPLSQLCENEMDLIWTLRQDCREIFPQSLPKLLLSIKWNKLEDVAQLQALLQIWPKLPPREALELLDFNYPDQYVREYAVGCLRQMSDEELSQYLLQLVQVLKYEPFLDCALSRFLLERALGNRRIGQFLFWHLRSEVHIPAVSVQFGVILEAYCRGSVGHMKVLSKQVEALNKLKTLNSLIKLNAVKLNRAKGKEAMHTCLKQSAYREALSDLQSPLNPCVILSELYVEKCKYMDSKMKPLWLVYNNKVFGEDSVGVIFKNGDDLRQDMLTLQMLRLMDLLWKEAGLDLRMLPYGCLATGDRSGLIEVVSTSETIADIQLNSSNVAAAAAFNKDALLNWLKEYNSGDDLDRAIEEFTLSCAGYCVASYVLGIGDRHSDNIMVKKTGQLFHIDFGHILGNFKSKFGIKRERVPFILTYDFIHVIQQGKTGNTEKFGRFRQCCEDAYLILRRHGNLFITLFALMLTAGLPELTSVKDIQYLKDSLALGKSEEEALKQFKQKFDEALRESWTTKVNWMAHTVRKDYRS
T3 sequence (P27986 whole entry partner): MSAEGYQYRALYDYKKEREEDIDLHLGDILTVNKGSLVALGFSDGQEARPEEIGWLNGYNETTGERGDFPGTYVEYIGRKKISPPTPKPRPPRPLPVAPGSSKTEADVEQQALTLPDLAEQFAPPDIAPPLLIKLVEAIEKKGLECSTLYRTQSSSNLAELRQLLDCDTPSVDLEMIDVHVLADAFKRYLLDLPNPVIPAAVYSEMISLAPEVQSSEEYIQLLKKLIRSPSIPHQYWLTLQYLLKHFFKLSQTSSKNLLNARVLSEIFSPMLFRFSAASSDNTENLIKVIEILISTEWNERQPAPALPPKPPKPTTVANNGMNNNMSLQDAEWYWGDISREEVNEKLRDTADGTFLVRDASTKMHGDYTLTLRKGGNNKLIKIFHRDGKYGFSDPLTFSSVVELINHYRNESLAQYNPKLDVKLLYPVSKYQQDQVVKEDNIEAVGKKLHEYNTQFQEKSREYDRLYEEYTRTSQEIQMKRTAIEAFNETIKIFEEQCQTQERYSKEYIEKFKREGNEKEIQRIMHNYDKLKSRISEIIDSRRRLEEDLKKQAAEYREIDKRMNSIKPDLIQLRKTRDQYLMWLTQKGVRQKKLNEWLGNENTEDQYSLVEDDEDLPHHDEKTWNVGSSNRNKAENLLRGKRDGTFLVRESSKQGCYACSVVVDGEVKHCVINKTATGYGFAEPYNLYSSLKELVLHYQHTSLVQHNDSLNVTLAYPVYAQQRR
Put plainly: Lipid kinase inhibitory activity, ADP-Glo. The note with it: β. It is filed as biochemical. The protocol: as §2, §3, §4, §5

The next series addresses T4, PI3Kg (p110g) (Homo sapiens, UniProt P48736).
T4 construct: purchased Reaction Biology Corporation (RBC)
Put plainly: Lipid kinase inhibitory activity, ADP-Glo. It is filed as biochemical. Conditions: γ. The protocol: as §2, §3, §4, §5

The target of another series is T5, PI3Kd (p110d/p85a) (Homo sapiens, UniProt O00329).
T5 construct: purchased Reaction Biology Corporation (RBC)
As to the kind of experiment: Lipid kinase inhibitory activity, ADP-Glo. It is filed as biochemical. Conditions: δ. The protocol: as §2, §3, §4, §5

Another series deals with T6, PI3K (p110a(E545K)/p85a) (Homo sapiens, UniProt P42336, E545K).
T6 construct: purchased Reaction Biology Corporation (RBC)
T6 sequence (P42336 whole entry E545K): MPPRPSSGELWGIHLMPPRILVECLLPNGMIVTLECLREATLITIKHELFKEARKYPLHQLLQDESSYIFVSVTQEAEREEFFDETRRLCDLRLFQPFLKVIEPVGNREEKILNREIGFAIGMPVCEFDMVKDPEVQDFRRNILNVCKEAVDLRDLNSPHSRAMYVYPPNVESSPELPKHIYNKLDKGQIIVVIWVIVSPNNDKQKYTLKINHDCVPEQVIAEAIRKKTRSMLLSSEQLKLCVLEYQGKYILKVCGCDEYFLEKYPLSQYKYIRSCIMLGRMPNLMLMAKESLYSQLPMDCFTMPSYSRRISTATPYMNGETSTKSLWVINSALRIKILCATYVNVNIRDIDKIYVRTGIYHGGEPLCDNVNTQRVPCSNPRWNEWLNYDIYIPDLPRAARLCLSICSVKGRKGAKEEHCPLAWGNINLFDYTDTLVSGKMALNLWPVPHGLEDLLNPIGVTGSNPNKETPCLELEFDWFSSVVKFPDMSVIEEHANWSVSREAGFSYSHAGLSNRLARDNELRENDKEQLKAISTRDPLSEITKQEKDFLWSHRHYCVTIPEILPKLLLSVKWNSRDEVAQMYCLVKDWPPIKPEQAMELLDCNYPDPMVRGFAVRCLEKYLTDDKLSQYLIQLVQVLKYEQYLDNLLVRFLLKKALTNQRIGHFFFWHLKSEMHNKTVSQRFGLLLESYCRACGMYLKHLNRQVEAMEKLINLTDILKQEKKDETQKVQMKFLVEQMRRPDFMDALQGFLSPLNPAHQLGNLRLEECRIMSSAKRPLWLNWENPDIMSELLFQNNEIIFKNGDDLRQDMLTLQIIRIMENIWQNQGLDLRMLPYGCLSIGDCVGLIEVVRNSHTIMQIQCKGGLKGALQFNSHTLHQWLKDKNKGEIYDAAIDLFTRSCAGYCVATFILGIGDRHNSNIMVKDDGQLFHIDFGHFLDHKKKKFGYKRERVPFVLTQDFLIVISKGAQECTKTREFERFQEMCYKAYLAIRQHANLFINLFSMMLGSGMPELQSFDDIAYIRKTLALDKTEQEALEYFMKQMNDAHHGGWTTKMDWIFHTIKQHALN
T6 sequence (P27986 whole entry partner): as the sequence (P27986 whole entry partner) above
As to the kind of experiment: Lipid kinase inhibitory activity, ADP-Glo. It is filed as biochemical. Conditions: α E545K. The protocol: as §2, §3, §4, §5

Another series addresses T7, PI3K (p110a(E542K)/p85a) (Homo sapiens, UniProt P42336, E542K).
T7 construct: purchased Reaction Biology Corporation (RBC)
As to the kind of experiment: Lipid kinase inhibitory activity, ADP-Glo. It is filed as biochemical. Conditions: α E542K. The protocol:
as §2, §3, §4, §5

Series [3] concerns the target T8, PI3K (p110a(H1047R)/p85a) (Homo sapiens, UniProt P42336, H1047R).
T8 construct: purchased Reaction Biology Corporation (RBC)
Put plainly: Lipid kinase inhibitory activity, ADP-Glo. The series is classed as biochemical. The note with it: α H1047R. The method, then:
as §2, §3, §4, §5

For another series, the system named is cancer cell. Conditions: U.S. Pat. No. 6,838,457; cited from earlier work.
Series [4] in a line: Saturation concentration in formulation or receiver medium. The series is classed as physicochemical. The note with it: gel formulation with excipients of Example 8 (Table 2). The method, then: The liquid excipients, i.e. DMSO, oleic acid, Transcutol® P, and dipropylene glycol were mixed in a 20-mL vial, by vortex agitation. The active ingredient, a compound of formula (I), for example Compound 1.002 was then added, and the vial content was sonicated for 10 minutes to dissolve the compound. […] Hydroxylpropyl cellulose (HPC) was added, and the vial was agitated by vortex for another ten minutes to obtain the gel formulation. The viscosity of the clear gel was measured to be in a range of about 7,000 to 10,000 centipoise (cp).
as §1

A short description of series [5]: Accelerated stability study of topical gel formulations at 80° C. The note with it: gel formulation (Table 2 excipients), 80° C. It is filed as physicochemical. The protocol: Topical gel formulations were prepared using excipients as shown in Table 2 according to Example 8, in which Compounds 1.002, 1.012, and 1.006 were used as the active ingredient, respectively. These gel formulations were subjected to stability study at 80° C. for 10 days. Stability under the condition of at 80° C. for 10 days is expected to be approximately equivalent to the stability for three (3) years at room temperature. A relative purity of the tested compound after being exposed for 5 days and 10 days at 80° C. was determined by HPLC, as compared to its initial purity (at day 0).
The values shown in the table are percent hydrolysis of the respective compounds to the parent compound MTPP.
Topical gel formulations of Compound 1.002 were prepared using excipients as shown in Table 2 according to Example 8, in which the content of oleic acid varied at 1%, 2%, 5%, and 10%, respectively. These gel formulations were subjected to stability study at 80° C. for 10 days, which is expected to be approximately equivalent to the stability for three (3) years at room temperature. A purity of the tested compound on day 0, 5, 7, and 10 at 80° C. was determined by HPLC. The detected impurity of the tested compound appears to be the hydrolysis product, as MTPP. Table 17 represents stability data of Compound 1.002 in topical formulations having oleic acid at various contents.
Gel formulations of Example 17 were subjected to stability study at 80° C. for 10 days. Stability under the condition of at 80° C. for 10 days is expected to be approximately equivalent to the stability for three (3) years at room temperature. A relative purity of Compound 1.002 after being exposed for 5 days and 10 days at 80° C. was determined by HPLC, as compared to its initial purity (at day 0).

Setting [6] is: Study-5, Table 6A experiment, saturated gel, 2 h.
Where [7] appears, read: Study-5, Table 6A experiment, saturated gel, 4 h.
The mark [8] stands for this setting: Study-5, Table 6A experiment, saturated gel, 8 h.
The mark [9] stands for this setting: Study-5, Table 6A experiment, saturated gel, 24 h.
[10] abbreviates: Study-5, Table 6A experiment, saturated gel, 48 h.
Where [11] appears, read: Study-5, Table 6B experiment, gel saturated at 215 mg/mL, 2 h.
The mark [12] stands for this setting: Study-5, Table 6B experiment, gel saturated at 215 mg/mL, 4 h.
Where [13] appears, read: Study-5, Table 6B experiment, gel saturated at 215 mg/mL, 8 h.
The mark [14] stands for this setting: Study-5, Table 6B experiment, gel saturated at 215 mg/mL, 24 h.
Where [15] appears, read: Study-5, Table 6B experiment, gel saturated at 215 mg/mL, 48 h.

T4 sequence (P48736 whole entry): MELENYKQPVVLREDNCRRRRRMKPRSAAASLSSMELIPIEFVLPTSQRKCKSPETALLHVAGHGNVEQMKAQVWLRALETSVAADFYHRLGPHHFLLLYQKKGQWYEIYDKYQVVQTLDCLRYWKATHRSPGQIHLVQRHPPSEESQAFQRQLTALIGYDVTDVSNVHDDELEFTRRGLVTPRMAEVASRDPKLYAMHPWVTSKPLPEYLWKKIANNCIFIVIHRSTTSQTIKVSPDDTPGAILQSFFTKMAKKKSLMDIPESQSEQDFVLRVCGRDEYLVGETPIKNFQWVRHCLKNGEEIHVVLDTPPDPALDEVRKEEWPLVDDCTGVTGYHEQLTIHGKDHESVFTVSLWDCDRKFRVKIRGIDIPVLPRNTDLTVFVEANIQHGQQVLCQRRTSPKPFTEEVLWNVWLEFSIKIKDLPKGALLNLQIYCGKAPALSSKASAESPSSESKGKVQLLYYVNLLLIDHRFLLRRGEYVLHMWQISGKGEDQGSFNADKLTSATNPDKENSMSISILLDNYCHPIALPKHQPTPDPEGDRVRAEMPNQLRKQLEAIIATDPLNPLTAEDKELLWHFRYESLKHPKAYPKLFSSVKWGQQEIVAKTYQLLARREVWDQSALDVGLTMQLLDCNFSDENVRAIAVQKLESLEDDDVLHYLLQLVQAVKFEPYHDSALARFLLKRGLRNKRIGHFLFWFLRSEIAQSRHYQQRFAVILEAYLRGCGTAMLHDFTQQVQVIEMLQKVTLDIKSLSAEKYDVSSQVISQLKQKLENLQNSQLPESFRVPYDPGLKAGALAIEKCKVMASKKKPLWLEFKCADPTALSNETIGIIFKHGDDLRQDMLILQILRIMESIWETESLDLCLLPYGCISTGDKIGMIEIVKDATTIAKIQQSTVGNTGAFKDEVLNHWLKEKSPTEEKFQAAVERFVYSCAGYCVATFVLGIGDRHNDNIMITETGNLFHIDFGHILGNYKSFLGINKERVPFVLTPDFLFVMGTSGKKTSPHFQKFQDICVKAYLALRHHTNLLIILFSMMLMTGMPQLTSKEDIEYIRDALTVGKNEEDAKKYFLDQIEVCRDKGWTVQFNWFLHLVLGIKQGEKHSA
T7 sequence (P42336 whole entry E542K): as the sequence (P42336 whole entry E545K) above, with E542K, K545E counted along it
T7 sequence (P27986 whole entry partner): as the sequence (P27986 whole entry partner) above
T8 sequence (P42336 whole entry H1047R): as the sequence (P42336 whole entry E545K) above, with K545E, H1047R counted along it
T8 sequence (P27986 whole entry partner): as the sequence (P27986 whole entry partner) above
T2 sequence (P42336 whole entry): as the sequence (P42336 whole entry E545K) above, with K545E counted along it
T2 sequence (P27986 whole entry partner): as the sequence (P27986 whole entry partner) above

As for `Oc1cccc(-c2nc(N3CCOCC3)c3sccc3n2)c1` [MTPP, 3-(4-morpholinothieno(3,2-d)pyrimidin-2-yl)phenol, reference compound], the PI3K inhibiting activity result in the series on PI3K is “excellent PI3K inhibiting activity”. The “Metabolism to MTPP during permeation through human skin” value (“Metabolism” for short) in series [1] is “permeated as its intact compound”. Moreover, the “Cumulative permeation (intact compound)” value in [2] (2 h) came to 0.23 μg/cm^2; in series [2] (4 h), 4.74 μg/cm^2; in series [2] (8 h), 15.85 μg/cm^2; in [2] (24 h) it was 43.32 μg/cm^2; in series [2] (48 h) it was 70.13 μg/cm^2. Moreover, the concentration for half-maximal inhibition (IC50) is 218 nM against MTOR/FRAP1; 5.2 nM on PI3Ka (p110a/p85a); 38 nM at PI3Kb (p110b/p85a); 90 nM at PI3Kg (p110g); 19 nM against PI3Kd (p110d/p85a); 6.3 nM against PI3K (p110a(E545K)/p85a). Besides, the IC50 on PI3K (p110a(E542K)/p85a) came out at 5.6 nM; in series [3], 7.2 nM. Further, the “Cancer cell growth inhibiting activity” value in the series with cancer cell is listed as “cancer cell growth inhibiting activity”.
Take `CCCCCC(=O)Oc1cccc(-c2nc(N3CCOCC3)c3sccc3n2)c1` [Compound 1.006, 3-(4-Morpholinothieno[3,2-d]pyrimidin-2-yl)phenyl Hexanoate]: in series [4], the “Saturation concentration in the gel formulation” value is recorded as 215 mg/mL. Moreover, the “Metabolism” value in series [1] was “metabolize into MTPP”. Moreover, the “Cumulative permeation, Compound 1.006” value in series [2] (setting [6]) was 0.0 μg/cm^2; in series [2] (setting [7]), 0.0 μg/cm^2; in series [2] (setting [8]) it was 1.0 μg/cm^2; in series [2] (setting [9]) it was 13.0 μg/cm^2; in series [2] (setting [10]) it was 30.5 μg/cm^2; in series [2] (setting [11]), 0.0 μg/cm^2. For the same molecule, the “Cumulative permeation, Compound 1.006” value in [2] (setting [12]) amounted to 0.5 μg/cm^2; in series [2] (setting [13]), 0.5 μg/cm^2; in series [2] (setting [14]), 0.6 μg/cm^2; in [2] (setting [15]), 0.6 μg/cm^2. For the same molecule, the “Hydrolysis of Cmpd. 1.006 to MTPP” value stood at 100% in series [2] (setting [6]); 100% in series [2] (setting [7]); 96.7% in series [2] (setting [8]); 79.5% in [2] (setting [9]); 82.0% in series [2] (setting [10]); 100% in series [2] (setting [11]). For the same molecule, the “Hydrolysis of Cmpd. 1.006 to MTPP” value in series [2] (setting [12]) turned out to be 93.3%; in series [2] (setting [13]), 97.8%; in series [2] (setting [14]), 98.9%; in [2] (setting [15]) it was 99.4%. Moreover, the “Relative Purity” value worked out at 100% in [5] (Day 0), 94% in series [5] (Day 5) and 92% in [5] (Day 10).
As for `CCOC(=O)Oc1cccc(-c2nc(N3CCOCC3)c3sccc3n2)c1` [Compound 1.012, Ethyl (3-(4-morpholinothieno[3,2-d]pyrimidin-2-yl)phenyl) Carbonate], the “Saturation concentration in the gel formulation” value in series [4] is given as 58 mg/mL. The “Metabolism” value in [1] is on record as “completely metabolize into MTPP”. For the same molecule, the “Cumulative permeation, Compound 1.012” value in series [2] (2 h), in series [2] (4 h), in series [2] (8 h), in [2] (24 h) and in series [2] (48 h) was 0.0 μg/cm^2 throughout. Moreover, the “Hydrolysis of Cmpd. 1.012 to MTPP” value in [2] (2 h), in series [2] (4 h), in series [2] (8 h), in series [2] (24 h) and in series [2] (48 h) was 100% each time. The figures for the “Relative Purity” value in series [5] (Day 0), in series [5] (Day 5) and in series [5] (Day 10) were 100%, 99% and 96%, respectively.
